Legend:
venous thrombosis = experiment: Venous thrombosis test in the rat (Wessler venous stasis under hypercoagulation with factor Xa), oral administration; format: in vivo; settings: Wistar male rats
Description: The antithrombotic activity of the compounds according to the invention was studied in vivo in the rat by means of a test that reproduces a venous thrombosis. The venous thrombosis was induced according to the protocol described in Thromb. Haemost., 1992, 67(1), 176-179. The oral activity was studied according to the following operating protocol: The experiments are performed on non-fasted Wistar male rats weighing 250 to 280 g, divided into groups of 10 animals each. The test products are administered orally (tubage) dissolved or suspended in a solution of methyl cellulose (0.5% in water). […] To induce this thrombosis, a venous stasis is created under hypercoagulation according to the technique described by WESSLER (J. Applied Physiol., 1959, 943-946), the hypercoagulating agent used being a solution of activated factor X (Xa) having a concentration of 7.5 nKat/kg, supplied by Biogenic (Montpellier). The venous stasis is effected exactly 10 seconds after injection of the hypercoagulating agent. The activity of the test compounds was checked at different doses after they had been administered.

[1] = Rattus norvegicus, dose 6 mg/kg, thrombosis induced 2 h after administration, read-out: Oral activity: Activity (percentage inhibition of thrombus formation)
[2] = dose 6 mg/kg, thrombosis induced 2 h after administration

**Q.** For `COc1ccc(-c2ccncc2O[C@@H]2SC[C@@H](O)[C@H](O)[C@H]2O)cc1` [Example 101, 4-(4-methoxyphenyl)-3-pyridinyl 5-thio-β-D-xylopyranoside], which inhibition in vivo at 6 mg/kg (venous thrombosis; [1]) is on record?
**A.** 97%

**Q.** What about the melting point of the same molecule?
**A.** 228 °C

**Q.** For `CC(=O)O[C@@H]1[C@@H](OC(C)=O)[C@H](OC(C)=O)CS[C@H]1Oc1cncc(-c2ccc(C#N)cc2)c1` [Example 15, [5-(4-cyanophenyl)-3-pyridinyl]2,3,4-tri-O-acetyl-5-thio-β-D-xylopyranoside], which “Oral activity: Activity (percentage inhibition of thrombus formation)” value (venous thrombosis; dose 8.2 mg/kg, thrombosis induced 2 h after administration) is on record?
**A.** 84%

**Q.** With `O[C@@H]1[C@@H](O)[C@H](Oc2cncc(-c3ccccc3)c2)SC[C@H]1O` [Example 14, 5-phenyl-3-pyridinyl 5-thio-β-D-xylopyranoside] as the molecule, how does the inhibition in vivo at 6 mg/kg (venous thrombosis; [1]) read?
**A.** 50%

**Q.** For `O[C@@H]1[C@@H](O)[C@H](Oc2cncc(-c3cccc(F)c3)c2)SC[C@H]1O` [Example 123, 5-(3-fluorophenyl)-3-pyridinyl 5-thio-β-D-xylopyranoside], which inhibition in vivo at 6 mg/kg (venous thrombosis; [1]) is on record?
**A.** 97%

**Q.** With `O[C@@H]1[C@@H](O)[C@H](Oc2cncc(-c3ccc(F)cc3Cl)c2)SC[C@H]1O` [Example 89, 5-(2-chloro-4-fluorophenyl)-3-pyridinyl 5-thio-β-D-xylopyranoside] as the molecule, how does the inhibition in vivo at 6 mg/kg (venous thrombosis; [1]) read?
**A.** 100%

**Q.** And the melting point?
**A.** 208 to 211 °C

**Q.** With `Cc1cc(F)ccc1-c1cncc(O[C@@H]2SC[C@@H](O)[C@H](O)[C@H]2O)c1` [Example 61, 5-(4-fluoro-2-methylphenyl)-3-pyridinyl 5-thio-β-D-xylopyranoside] as the molecule, how does the inhibition in vivo at 6 mg/kg (venous thrombosis; [1]) read?
**A.** 98%

**Q.** What about the melting point of the same molecule?
**A.** 217 °C

**Q.** With `COc1ccc(-c2cncc(O[C@@H]3SC[C@@H](O)[C@H](O)[C@H]3O)c2)cc1F` [Example 103, 5-(3-fluoro-4-methoxyphenyl)-3-pyridinyl 5-thio-β-D-xylopyranoside] as the molecule, how does the inhibition in vivo at 6 mg/kg (venous thrombosis; [1]) read?
**A.** 100%

**Q.** What about the melting point of the same molecule?
**A.** 200 °C

**Q.** With `O[C@@H]1[C@@H](O)[C@H](Oc2cncc(-c3ccc(F)c(Cl)c3)c2)SC[C@H]1O` [Example 131, 5-(3-chloro-4-fluorophenyl)-3-pyridinyl 5-thio-β-D-xylopyranoside] as the molecule, how does the inhibition in vivo at 6 mg/kg (venous thrombosis; [1]) read?
**A.** 80%

**Q.** Which results are given for `Cc1ccc(-c2ccc(O[C@@H]3SC[C@@H](O)[C@H](O)[C@H]3O)cn2)cc1` [Example 99, 6-(4-methylphenyl)-3-pyridinyl 5-thio-β-D-xylopyranoside]?
**A.** inhibition in vivo at 6 mg/kg (venous thrombosis; [1]): 72%; melting point: 191 °C

**Q.** With `CC(=O)c1ccc(O[C@@H]2SC[C@@H](O)[C@H](O)[C@H]2O)cn1` [Example 2, 6-acetyl-3-pyridinyl 5-thio-β-D-xylopyranoside] as the molecule, how does the inhibition in vivo at 6 mg/kg (venous thrombosis; [1]) read?
**A.** 63%

**Q.** With `N#Cc1ccc(-c2ncccc2O[C@@H]2SC[C@@H](O)[C@H](O)[C@H]2O)cc1` [Example 12, [2-(4-cyanophenyl)-3-pyridinyl]5-thio-β-D-xylopyranoside] as the molecule, how does the “Oral activity: Activity (percentage inhibition of thrombus formation)” value (venous thrombosis; [2]) read?
**A.** 14%

**Q.** For `O=C(c1ccc(C(F)(F)F)cc1)c1ccc(O[C@@H]2SC[C@@H](O)[C@H](O)[C@H]2O)cn1` [Example 8, [6-[4-(trifluoromethyl)benzoyl]-3-pyridinyl]5-thio-β-D-xylopyranoside], which “Oral activity: Activity (percentage inhibition of thrombus formation)” value (venous thrombosis; [2]) is on record?
**A.** 46%

**Q.** Which inhibition in vivo at 6 mg/kg (venous thrombosis; [1]) does the source give for `CC(=O)c1ncccc1O[C@@H]1SC[C@@H](O)[C@H](O)[C@H]1O` [Example 4, 2-acetyl-3-pyridinyl 5-thio-β-D-xylopyranoside] here?
**A.** 96%

**Q.** What about the melting point of the same molecule?
**A.** 123 °C

**Q.** What does the source list for `Cc1cc(-c2cncc(O[C@@H]3SC[C@@H](O)[C@H](O)[C@H]3O)c2)ccc1F` [Example 59, 5-(4-fluoro-3-methylphenyl)-3-pyridinyl 5-thio-β-D-xylopyranoside]?
**A.** inhibition in vivo at 6 mg/kg (venous thrombosis; [1]): 82%; melting point: 197 °C

**Q.** For `CC(=O)O[C@@H]1[C@@H](OC(C)=O)[C@H](OC(C)=O)CS[C@H]1Oc1cccnc1C(C)=O` [Example 3, 2-acetyl-3-pyridinyl 2,3,4-tri-O-acetyl-5-thio-β-D-xylopyranoside], which inhibition in vivo at 8.6 mg/kg (venous thrombosis; Rattus norvegicus, dose 8.6 mg/kg, thrombosis induced 2 h after administration, read-out: Oral activity: Activity (percentage inhibition of thrombus formation)) is on record?
**A.** 92%

**Q.** Which melting point does the source give for `O[C@@H]1[C@@H](O)[C@H](Oc2cccnc2-c2ccccc2)SC[C@H]1O` [Example 24, 2-phenyl-3-pyridinyl 5-thio-β-D-xylopyranoside] here?
**A.** 89 to 108 °C

**Q.** With `N#Cc1cc(F)ccc1-c1cncc(O[C@@H]2SC[C@@H](O)[C@H](O)[C@H]2O)c1` [Example 148, 5-(2-cyano-4-fluorophenyl)-3-pyridinyl 5-thio-β-D-xylopyranoside] as the molecule, how does the melting point read?
**A.** 198 to 200 °C

**Q.** Which melting point does the source give for `CCN(CC)C(=O)c1cncc(O[C@@H]2SC[C@@H](O)[C@H](O)[C@H]2O)c1` [Example 160, 5-[(N,N-diethylamino)carbonyl]-3-pyridinyl 5-thio-β-D-xylopyranoside] here?
**A.** 143 °C

**Q.** For `N#Cc1ccc(C(=O)c2ncccc2O[C@@H]2SC[C@@H](O)[C@H](O)[C@H]2O)cc1` [Example 6, [2-(4-cyanobenzoyl)-3-pyridinyl]5-thio-β-D-xylopyranoside], which “Oral activity: Activity (percentage inhibition of thrombus formation)” value (venous thrombosis; [2]) is on record?
**A.** 61%

**Q.** What about the “Oral activity: Activity (percentage inhibition of thrombus formation)” value (venous thrombosis; dose 6 mg/kg, thrombosis induced 8 h after administration) of the same molecule?
**A.** 26%

**Q.** With `COc1ccc(-c2cncc(O[C@@H]3SC[C@@H](O)[C@H](O)[C@H]3O)c2)cc1OC` [Example 71, 5-(3,4-dimethoxyphenyl)-3-pyridinyl 5-thio-β-D-xylopyranoside] as the molecule, how does the melting point read?
**A.** 211 °C

**Q.** Which inhibition in vivo at 6 mg/kg (venous thrombosis; [1]) does the source give for `O[C@@H]1[C@@H](O)[C@H](Oc2cncc(-c3ccccc3F)c2)SC[C@H]1O` [Example 126, 5-(2-fluorophenyl)-3-pyridinyl 5-thio-β-D-xylopyranoside] here?
**A.** 91%

**Q.** For `O[C@@H]1[C@@H](O)[C@H](Oc2cncc(Oc3ccccc3)c2)SC[C@H]1O` [Example 26, 5-phenoxy-3-pyridinyl 5-thio-β-D-xylopyranoside], which melting point is on record?
**A.** 226 °C

From US8148407B2, “Compounds derived from 5-thioxylose and their use in therapeutics” (Laboratories Fournier S.A., priority 2005, dated 2012)
